Reference: US20230203060A1 (GENFLEET THERAPEUTICS (SHANGHAI) INC., priority 2020, published 2023)
Like-named read-outs stand apart in the source and are kept apart here.

Columns and labels:
Assay type in all cases: cell-based, human
[1] = system: KRAS G12C mutant MIA PaCa-2 cells; assay: Cell proliferation inhibition experiment, 3D spheroid, CellTiter-Glo, MIA PaCa-2; details: 3D cell model in 384-well spheroid plate, 5 days, CellTiter-Glo, read-out: MIA-PaCa2 IC50
From the text: Raw materials and instruments: MIA PaCa-2 purchased from ATCC; article number: CRL-1420; batch number: 63143594; DMEM purchased from Gibco; article number: 11995-065; batch number: 2186878; FBS purchased from Gibco; article number: 10099-141; batch number: 2109290CP; Horse Serum purchased from Gibco; article number: 16050-122; batch number: 1818976; PS purchased from Gibco; article number: 15140-122; batch number: 2145451; Trypsin-EDTA purchased from Gibco; article number: 25200-072; batch number: 2085552; CellTiter Glo working solution purchased from Promega; article number: G9683; batch number 398478; DMSO purchased from VWR AMRESCO; article number: 0231-500ML; batch number: 18C0656168; 384-well spheroid plate purchased from Corning; article number: 3830; batch number: 27519032; white opaque 384-well plate purchased from Corning; article number: 3570; batch number: 26819023; microplate reader purchased from PerkinElmer; model: Envision MLD2105-0020; equipment number 1050369.
MIA PaCa-2 is a KRAS G12C mutant human pancreatic cancer cell line, cultured in 10% FBS+2.5% Horse Serum DMEM+1% PS culture medium; cells at logarithmic growth stage were taken, digested with trypsin-EDTA, then collected and counted, and 200 MIA PaCa-2 were inoculated in a 384-well spheroid plate, respectively, and cultured overnight to establish a 3D cell model. A 3.16-fold gradient concentration stock solution of 1000× compound was prepared with DMSO, and diluted 100-fold to 10× compound stock solution with culture medium. On the second day after cell inoculation, 10× compound stock solution was added to each cell culture well, with a final concentration of 1× and a DMSO content of 0.1%. DMSO was used as experimental control (control), and culture medium was used as blank control (blank). After 5 days of compound cell culture, 30 μL of CellTiter-Glo working solution was added to each well, mixed well and incubated for 30 minutes. After standing at room temperature for 30 minutes, 40 μL of the mixed solution was transferred to a white opaque 384-well plate, and the luminescence chemiluminescence value was read with a microplate reader. The cell proliferation inhibition rate IR (%)=(RLU control -RLU compound)/(RLU control−RLU blank)×100% was calculated. The gradient dilution concentration of the compound and the corresponding cell proliferation inhibition rate were fitted by XLFit four-parameter method, and the IC50 value was calculated. The inhibitory activity of the compounds prepared in the above embodiments of the present disclosure on KRAS G12C mutant MIA PaCa-2 cells was 0.0001 μM to 0.5 μM; the inhibitory activity of some compounds on KRAS G12C mutant MIA PaCa-2 cells was 0.001 μM to 0.1 μM or 0.001 μM to 0.05 μM.

[2] = system: KRAS G12C mutant NCI-H358 cells; assay: Cell proliferation inhibition experiment, 3D spheroid, CellTiter-Glo, NCI-H358; details: NCI-H358 (KRAS G12C mutant) 3D spheroid, 5 days with compound, CellTiter-Glo, read-out: H358 IC50
In short: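 NCI-H358 (800 cells/well, RPMI-1640) and A549 (400 cells/well, F-12K) grown overnight as 3D spheroids in 2% FBS medium, then exposed 5 days to 3.16-fold compound dilutions at 0.1% DMSO. Viability measured by CellTiter-Glo luminescence; inhibition relative to DMSO and medium blank, IC50 from four-parameter fit.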

[3] = system: A549 cells (KRAS G12S mutant); assay: Cell proliferation inhibition experiment, 3D spheroid, CellTiter-Glo, A549; details: A549 (KRAS G12S mutant) 3D spheroid, 5 days with compound, CellTiter-Glo, read-out: A549 IC50
From the text: Raw materials and instruments: NCI-H358 purchased from ATCC; article number: CRL-5807; batch number: 70010825; A549 purchased from ATCC; article number: CCL-185; batch number: 70007820; RPMI1640 purchased from Gibco; article number: 11875-093; batch number: 2152748; F-12K purchased from Gibco; article number: 21127-022; batch number: 2185853; FBS purchased from Gibco; article number: 10099-141; batch number: 2109290CP; PS purchased from Gibco; article number: 15140-122; batch number: 2145451; Trypsin-EDTApurchased from Gibco; article number: 25200-072; batch number: 2085552; CellTiter Glo working solution purchased from Promega; article number: G9683; batch number: 398478; DMSO purchased from VWR AMRESCO; article number: 0231-500ML; batch number: 18C0656168; 384-well spheroid plate purchased from Corning; article number: 3830; batch number: 27519032; white opaque 384-well plate purchased from Corning; article number: 3570; batch number: 26819023; microplate reader purchased from PerkinElmer; model: Envision MLD2105-0020; equipment number 1050369.
NCI-H358 is a KRAS G12C mutant human non-small cell lung cancer cell line, cultured in 10% FBS RPMI-1640+1% PS culture medium; and A549 is a KRAS G12S mutant human lung adenocarcinoma cell line, cultured in 10% FBS F-12K+1% PS culture medium. Cells at logarithmic growth stage were taken, digested with trypsin-EDTA, then collected and counted. H358 was adjusted to 1.8 E4 cells/mL with 2% FBS RPMI-1640 culture medium, and A549 was adjusted to 8.9 E3 cells/mL with 2% FBS F-12K culture medium; 800 (45 μL) H358 or 400 (45 μL) A549 were inoculated respectively in a 384-well spheroid plate and cultured overnight to establish a 3D cell model. A 3.16-fold gradient concentration stock solution of 1000× compound was prepared with DMSO, and diluted 100-fold to 10× compound stock solution with 2% FBS culture medium. On the second day after cell inoculation, 5 μL of 10× compound stock solution was added to each cell culture well, with a final concentration of 1× and a DMSO content of 0.1%. DMSO was used as experimental control (control), and 2% FBS culture medium was used as blank control (blank). After 5 days of compound cell culture, 25 μL of CellTiter-Glo working solution was added to each well, mixed well at 400 rpm and incubated for 30 minutes. After standing at room temperature for 30 minutes, 40 μL of the mixed solution was transferred to a white opaque 384-well plate, and the luminescence chemiluminescence value was read with a microplate reader. The cell proliferation inhibition rate IR (%)=(RLU control -RLU compound)/(RLU control -RLU blank) x100% was calculated. The gradient dilution concentration of the compound and the corresponding cell proliferation inhibition rate were fitted by Prism 6 four-parameter method, and the IC50 value was calculated. The inhibitory activity of the compounds prepared in the above embodiments of the present disclosure on KRAS G12C mutant NCI-H358 cells was 0.0001 μM to 0.5 μM; the inhibitory activity of some compounds on KRAS G12C mutant NCI-H358 cells was 0.001 μM to 0.1 μM or 0.001 μM to 0.05 μM.

[4] = Homo sapiens, MIA PaCa-2, 120 h

SMILES	IC50 [1, 4]	IC50 ([2]; Homo sapiens, NCI-H358, 120 h)	IC50 ([3]; Homo sapiens, A549, 120 h)	IC50 [1]	IC50 [2]	IC50 [3]
C=CC(=O)N1CCN2C(=O)c3c(N4CCCC4)nc(-c4c(O)cccc4F)c(Cl)c3OC[C@H]2C1 [Z11, (6aR)-8-acryloyl-4-chloro-3-(2-fluoro-6-hydroxyphenyl)-1-(pyrrolidin-1-yl)-6,6a,7,8,9,10-hexahydro-12H-pyrazino[2,1-c]pyrido[3,4-f][1,4]oxazepin-12-one]	64 nM	42 nM	9.34 µM			
C=CC(=O)N1CCN2C(=O)c3c(Oc4cccc5c4OC(C)(C)C5)nc(-c4c(O)cccc4F)c(Cl)c3OC[C@H]2C1 [Z42, (6aR)-8-acryloyl-4-chloro-1-((2,2-dimethyl-2,3-dihydrobenzofuran-7-yl)oxy)-3-(2-fluoro-6-hydroxyphenyl)-6,6a,7,8,9,10-hexahydro-12H-pyrazino[2,1-c]pyrido[3,4-f][1,4]oxazepin-12-one]	87 nM	37 nM	6.29 µM			
C=CC(=O)N1CCN2C(=O)c3c(OCC4CCN(C)CC4)nc(-c4c(O)cccc4F)c(Cl)c3OC[C@H]2C1 [Z40, (6aR)-8-acryloyl-1-((1-methylpiperidin-4-yl)methoxy)-4-chloro-3-(2-fluoro-6-hydroxyphenyl)-6,6a,7,8,9,10-hexahydro-12H-pyrazino[2,1-c]pyrido[3,4-f][1,4]oxazepin-12-one]	57 nM	91 nM	> 30 µM			
C=CC(=O)N1CCN2C(=O)c3c(N4CCN(C5COC5)CC4C)nc(-c4c(O)cccc4F)c(Cl)c3OC[C@H]2C1 (stereo partly drawn) [Z239, (6aR)-8-acryloyl-4-chloro-3-(2-fluoro-6-hydroxyphenyl)-1-(2-methyl-4-(oxetan-3-yl)piperazin-1-yl)-6,6a,7,8,9,10-hexahydro-12H-pyrazino[2,1-c]pyrido[3,4-f][1,4]oxazepin-12-one]	41.6 nM	22.9 nM	13.8 µM			
C=CC(=O)N1CCN2C(=O)c3c(N4CCOCC4(C)C)nc(-c4c(O)cccc4F)c(Cl)c3OC[C@H]2C1 [Z70, (6aR)-8-acryloyl-4-chloro-1-(3,3-dimethylmorpholino)-3-(2-fluoro-6-hydroxyphenyl)-6,6a,7,8,9,10-hexahydro-12H-pyrazino[2,1-c]pyrido[3,4-f][1,4]oxazepin-12-one]	52 nM	25 nM	> 10 µM			
C=CC(=O)N1CCN2C(=O)c3c(Nc4c(C)ccnc4C(C)C)nc(-c4c(O)cccc4F)c(F)c3OC[C@H]2C1 [Z9, (6aR)-8-acryloyl-4-fluoro-3-(2-fluoro-6-hydroxyphenyl)-1-((2-isopropyl-4-methylpyridin-3-yl)amino)-6,6a,7,8,9,10-hexahydro-12H-pyrazino[2,1-c]pyrido[3,4-f][1,4]oxazepin-12-one]	95 nM	23 nM	11.3 µM			
C=CC(=O)N1CCN2C(=O)c3c(N4CCC5(COC5)C4)nc(-c4c(O)cccc4F)c(Cl)c3OC[C@H]2C1 [Z45, (6aR)-8-acryloyl-4-chloro-3-(2-fluoro-6-hydroxyphenyl)-1-(2-oxa-6-azaspiro[3.4]octan-6-yl)-6,6a,7,8,9,10-hexahydro-12H-pyrazino[2,1-c]pyrido[3,4-f][1,4]oxazepin-12-one]	60 nM	46 nM	> 20 µM			
C=CC(=O)N1CCN2C(=O)c3c(-c4c(F)cccc4OC)nc(-c4c(O)cccc4F)c(Cl)c3OC[C@H]2C1 [Z55, (6aR)-8-acryloyl-4-chloro-3-(2-fluoro-6-hydroxyphenyl)-1-(2-fluoro-6-methoxyphenyl)-6,6a,7,8,9,10-hexahydro-12H-pyrazino[2,1-c]pyrido[3,4-f]oxazepin-12-one]				361 nM	134 nM	> 1 µM
C=CC(=O)N1CCN2C(=O)c3c(N4CCOC[C@@H]4CC)nc(-c4c(O)cccc4F)c(Cl)c3OC[C@H]2C1 [Z52, (6aR)-8-acryloyl-4-chloro-1-((S)-3-ethylmorpholino)-3-(2-fluoro-6-hydroxyphenyl)-6,6a,7,8,9,10-hexahydro-12H-pyrazino[2,1-c]pyrido[3,4-f][1,4]oxazepin-12-one]	39 nM	36 nM	> 5 µM			
C=CC(=O)N1CCN2C(=O)c3c(N4CCC5(CC5)C4)nc(-c4c(O)cccc4F)c(Cl)c3OC[C@H]2C1 [Z44, (6aR)-8-acryloyl-4-chloro-3-(2-fluoro-6-hydroxyphenyl)-1-(5-azaspiro[2.4]heptan-5-yl)-6,6a,7,8,9,10-hexahydro-12H-pyrazino[2,1-c]pyrido[3,4-f][1,4]oxazepin-12-one]	51 nM	26 nM	> 5 µM			
C=CC(=O)N1CCN2C(=O)c3c(N4CCC5(CCOC5)C4)nc(-c4c(O)cccc4F)c(Cl)c3OC[C@H]2C1 (stereo partly drawn) [Z59, (6aR)-8-acryloyl-4-chloro-3-(2-fluoro-6-hydroxyphenyl)-1-(2-oxa-7-azaspiro[4.4]nonan-7-yl)-6,6a,7,8,9,10-hexahydro-12H-pyrazino[2,1-c]pyrido[3,4-f][1,4]oxazepin-12-(6aH)-one]				27 nM	19 nM	> 30 µM
